Several values for one entry are separate records, joined by “and”; a condition that tells them apart may be missing. Identical values can stand only once.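 Grown in 96-well plates, cells were treated for 48 hours with each compound at five concentrations. Insufficient inhibition: endpoint recorded as highest concentration tested. Here, GI50 denotes the concentration required for 50% inhibition of growth. TGI marks complete inhibition of growth.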

Some test systems named below: DU-145 prostate; HS 578T breast; KM20L2 colon; MDA-N; M19-MEL melanoma; DLD-1 colon.
Common to all, as to experiment: inhibition of tumour cell growth, NCI panel, 48 h

Take `COC(=O)/C=C1\SC(=Nc2ccc(C(F)(F)F)cc2)N(CCc2c[nH]c3ccccc23)C1=O`: in the test on DU-145 prostate, the GI50 was 1.87 µM and the TGI worked out at 4.21 µM.

Take `O=C(CSc1nc2ccc([N+](=O)[O-])cc2[nH]1)Nc1cccc(C(F)(F)F)c1`: in the test on DU-145 prostate, the GI50 was 3.54 µM and the TGI amounted to 15 µM. In addition, in the test with HS 578T breast, the GI50 was 2.45 µM and the TGI worked out at 10.7 µM.

For the compound `O=C1C(Cl)=C(Oc2ccccc2)C(=O)c2ccccc21`, in the test on DU-145 prostate, the GI50 is 16.2 µM and the TGI was determined as 31 µM. In addition, in the test on HS 578T breast, the GI50 is 2.62 µM and the TGI stood at 13 µM.

With `NCCCn1c2c(c3ccccc3c1=O)C(=O)c1cc3c(cc1-2)OCO3`, the values for the GI50 in the test on DU-145 prostate and in the test with HS 578T breast were 0.137 µM and 0.687 µM, respectively. Moreover, the values for the TGI in the test on DU-145 prostate and with HS 578T breast were 0.638 µM and 4.31 µM, respectively.

On to `c1ccc(Oc2c3ccccc3nc3ccccc23)cc1`, for which, in the test on DU-145 prostate, the GI50 is 3.72 µM and the TGI came out at 11.2 µM. In the test with HS 578T breast, the GI50 is 6.99 µM and the TGI is above 100 µM.

`Cc1ccc(C)c(-n2c(-c3ccc(Br)cc3)csc2=NC(=O)c2ccccc2F)c1`: the GI50 in the test on DU-145 prostate and with HS 578T breast was above 100 µM throughout. The TGI with DU-145 prostate and in the test with HS 578T breast was above 100 µM each time.

Consider `O=C1NC(=O)[C@@H](c2cn3c4c(cccc24)CCC3)[C@@H]1c1c[nH]c2ccccc12`, for which, in the test with DU-145 prostate, the GI50 was 0.417 µM and 0.442 µM; the TGI was > 10 µM and 6.81 µM. Also, in the test on HS 578T breast, the GI50 was 0.343 µM and 0.323 µM; the TGI was > 10 µM and 20.9 µM.

In the case of `Cn1cc(-c2nc(-c3c[nH]c4ncccc34)cs2)c2cc(Cl)ccc21`, in the test on DU-145 prostate, the GI50 is 5.67 µM and the TGI is above 100 µM. In addition, in the test with HS 578T breast, the GI50 is 4.18 µM and the TGI is 32.7 µM.

For the compound `O=[N+]([O-])c1ccc2c(c1)OCCOCCOc1ccc([N+](=O)[O-])cc1OCCOCCO2`, in the test with KM20L2 colon, the TGI is above 100 µM.

Consider `CCOC(=O)c1[nH]c2cccc3c2c1CC(Br)C3=O` (stereo not drawn), for which the figures for the TGI in the test with DU-145 prostate and in the test with MDA-N were 30.4 µM and 24.9 µM, respectively.

On to `Cc1c2ncccc2c(C)c2c1[nH]c1ccc(O)cc12`, for which the GI50 in the test on DU-145 prostate is 5.31 µM; with HS 578T breast it was 7.84 µM; in the test with MDA-N, 9.69 µM. Moreover, the TGI with DU-145 prostate is 17.9 µM; in the test on HS 578T breast it was 21.2 µM and 84.8 µM; with MDA-N, 17.9 µM and 47.5 µM.

On to `O=C1CCCSCCCC(=O)CCCSCCC1`, for which the TGI in the test with DU-145 prostate and in the test on MDA-N was above 100 µM throughout.

Take `O=c1oc2ccccc2c(Cl)c1Cl`: in the test with DU-145 prostate, the GI50 was 3.02 µM and the TGI turned out to be 12.1 µM. For the same compound, in the test with HS 578T breast, the GI50 is 2.69 µM and the TGI stood at 9.71 µM.

For the compound `COc1cc(-c2cc(C(=O)Nc3nc4ccccc4s3)nc3cc(-c4ccccc4)nn23)cc(OC)c1OC`, the GI50 was 65 µM in the test with DU-145 prostate and 4.7 µM in the test on HS 578T breast. Moreover, the TGI with DU-145 prostate and in the test with HS 578T breast was above 100 µM each time.

On to `Nc1nc(SCC(=O)O)[nH]c(=O)c1N`, for which the TGI in the test with DU-145 prostate, in the test on HS 578T breast and in the test on MDA-N was above 100 µM each time.

For the compound `Clc1ccc(Nc2ccnc(NCCNc3ccnc4cc(Cl)ccc34)n2)cc1`, in the test on DU-145 prostate, the GI50 was 1.59 µM and the TGI came out at 2.97 µM. Besides, in the test on HS 578T breast, the GI50 was 1.83 µM and the TGI came to 4.38 µM.

Turning to `C=C(CN1CCc2ccccc2C1)c1ccc(/C=C/C(=O)Nc2ccccc2N)cc1`, in the test with DU-145 prostate, the GI50 is 5.98 µM and the TGI was above 100 µM. In the test with HS 578T breast, the GI50 was 17.1 µM and the TGI is above 100 µM.

As to `CCN(Cc1ccc(F)cc1F)c1ccc(CO)c(Cl)c1`, in the test with DU-145 prostate, the GI50 was 20.1 µM and the TGI was above 70.9 µM. In the test on HS 578T breast, the GI50 is 18.9 µM and the TGI was above 72.8 µM.

Regarding `O=C1C2c3[nH]c4ccccc4c3C3CCSCC3C2C(=O)N1c1ccccc1` (stereo not drawn), the TGI in the test with M19-MEL melanoma, with DLD-1 colon and with KM20L2 colon was above 100 µM in each case.

Turning to `Cc1cc(Cl)ccc1NC(=O)/C(Cc1nc2ccc(C(=O)c3ccccc3)cc2[nH]c1=O)=N/NC(=O)c1ccncc1`, the TGI in the test with HS 578T breast and with MDA-N was above 100 µM each time.

On to `O=C1CC2(CCCc3sccc32)C(=O)N1` (stereo not drawn), for which the TGI with DU-145 prostate, with HS 578T breast and with MDA-N was above 100 µM throughout.

As for `O=C(O)C1CCCN1Cc1c[nH]c2ccccc12` (stereo not drawn), the TGI in the test with DU-145 prostate, with HS 578T breast and in the test on MDA-N was above 100 µM throughout.

For `O=P(Oc1ccccc1)(Oc1ccccc1)C(O)c1ccccc1` (stereo not drawn), in the test on DU-145 prostate, the GI50 was above 100 µM and the TGI was above 100 µM. Besides, in the test with HS 578T breast, the GI50 was 45.9 µM and the TGI is above 100 µM.

Take `CCN(CC)c1ccc2[nH]c3c(C(N)=O)cc(=O)c(=O)c=3oc2c1`: in the test with DU-145 prostate, the GI50 was 1.87 µM and the TGI is 7.39 µM. In the test with HS 578T breast, the GI50 was 0.663 µM and the TGI was above 100 µM.

Take `COc1cc2c3c(n(CCCO)c(=O)c2cc1OC)-c1cc2c(cc1C3=O)OCO2`: in the test on DU-145 prostate, the GI50 is 3.22 µM and the TGI is above 44.3 µM. Besides, in the test on HS 578T breast, the GI50 was 52 µM and the TGI is above 100 µM.

With `COc1cccc(-c2nc(-c3ccc(NS(=O)(=O)c4ccccc4)cc3)[nH]c2-c2ccnc(Br)c2)c1`, in the test with DU-145 prostate, the GI50 is 3.69 µM and the TGI was above 100 µM. Also, in the test with HS 578T breast, the GI50 was 1.71 µM and the TGI came out at 5.17 µM.

`COCC1N=C(c2ccc(OC)c(OCc3ccccc3)c2OC)O[C@H]1c1ccccc1` (stereo partly drawn): the TGI was 53.8 µM in the test on M19-MEL melanoma, above 100 µM in the test on DLD-1 colon and 41.1 µM in the test on KM20L2 colon.

For the compound `CCOC(=O)c1sc2ncn(Cc3cccc(Cl)c3)c(=O)c2c1C`, in the test with DU-145 prostate, the GI50 is 17.7 µM and the TGI was determined as 31.5 µM. Moreover, in the test with HS 578T breast, the GI50 is 17.5 µM and the TGI turned out to be 31.3 µM.
